Drawing on patent US8822430B2 (Gilead Sciences, Inc., priority 2009, dated 2014), this text covers EC50 for 38 molecules.

Usually EC50 stands for the concentration needed to bring the measured effect to its halfway point.

The assay relates to HCV 1b RLuc cells (dicistronic genotype 1b Con1 replicon). Put plainly: Renilla luciferase (RLuc)-based HCV replicon reporter assay. The settings on record: HCV 1b RLuc replicon, 72 hours, read-out: Activity (antiviral potency [EC50]). Format: cell-based, HCV genotype 1b. As for the experimental part:
Antiviral potency (EC50) was determined using a Renilla luciferase (RLuc)-based HCV replicon reporter assay. To perform the assay, HCV 1b RLuc cells (harboring a dicistronic genotype 1b Con1 replicon that encodes a RLuc reporter), or HCV 1a RLuc cells (harboring a dicistronic genotype 1a H77 replicon that encodes a RLuc reporter), were dispensed into 384-well plates. Compounds were re-suspended in DMSO at a concentration of 10 mM and serially diluted in DMSO using an automated pipeting instrument. Serially diluted compounds were mixed with cell culture media and added to the seeded cells. DMSO was used as a negative (solvent) control, and the protease inhibitor ITMN-191 was included at a concentration >100×EC50 as a positive control. 72 hours later, cells were lysed and Renilla luciferase activity quantified as recommended by the manufacturer (Promega-Madison, Wis.). Non-linear regression was performed to calculate EC50 values.
Biological data (antiviral potency [EC50] was determined using a Renilla luciferase (RLuc)-based HCV replicon reporter assay—HCV 1b RLuc) for representative compounds of the invention is provided in the following table. These compounds can be prepared using procedures similar to those described above.
On the technique in general: A replicon is a self-replicating genome or part of one, used to study replication in cells.

Like-named read-outs stand apart in the source and are kept apart here.

Regarding `COC(=O)N[C@H](C(=O)N1CCC[C@H]1c1ncc(-c2ccc(C#Cc3ccc(-c4cnc([C@@H]5CN(C(C)=O)CCN5C(=O)[C@@H](NC(=O)OC)C(C)C)[nH]4)cc3)cc2)[nH]1)C(C)C`, under “Hepatitis C virus, 72 h”, the EC50 was found to be 0.204 nM.

`COC(=O)N[C@H](C(=O)N1[C@@H]2CC[C@@H](C2)[C@H]1c1ncc(-c2ccc(-c3ccc4cc(-c5cnc([C@@H]6CC7(CC7)CN6C(=O)[C@@H](NC(=O)OC)C6CCOCC6)[nH]5)ccc4c3)cc2)[nH]1)C(C)C`: the EC50 (Hepatitis C virus, 72 h) is 0.0136 nM.

As for `COC(=O)N[C@H](C(=O)N1CC2(C[C@H]1c1ncc(-c3ccc(-c4ccc(-c5cnc([C@@H]6CCCN6C(=O)[C@@H](NC(=O)OC)C6CCOCC6)[nH]5)cc4)cc3)[nH]1)OCCO2)C(C)C`, the EC50 (Hepatitis C virus, 72 h) came to 0.546 nM.

Turning to `COC(=O)N[C@H](C(=O)N1CCC[C@H]1c1ncc(-c2ccc3c(c2)COc2c-3ccc3cc(-c4cnc([C@@H]5CCCN5C(=O)[C@@H](NC(=O)OC)C5CCOCC5)[nH]4)ccc23)[nH]1)C1CCOCC1`, the EC50 (Hepatitis C virus, 72 h) was found to be 0.0417 nM.

For `COC(=O)N[C@H](C(=O)N1CCC[C@H]1c1ncc(-c2ccc(-c3ccc4cc(-c5cnc([C@@H]6CCCN6C(=O)[C@H](NC(=O)OC)c6ccccc6)[nH]5)ccc4c3)cc2)[nH]1)C(C)C`, for the setting “Hepatitis C virus, 72 h”, the EC50 came out at 0.0083 nM.

`COC(=O)N[C@H](C(=O)N1CCC[C@H]1c1ncc(-c2ccc3c(c2)C(=O)c2cc(-c4ccc5nc([C@@H]6[C@H]7CC[C@H](C7)N6C(=O)[C@@H](NC(=O)OC)C(C)C)[nH]c5c4)ccc2-3)[nH]1)C(C)C`: under “Hepatitis C virus, 72 h”, the EC50 is 0.006 nM.

Regarding `COC(=O)N[C@H](C(=O)N1CCC[C@H]1c1ncc(-c2ccc3cc(-c4ccc(-c5cnc([C@@H]6CCCN6C(=O)[C@@H](NC(=O)OC)C6CCCCC6)[nH]5)cc4)ccc3c2)[nH]1)C(C)C`, the EC50 (Hepatitis C virus, 72 h) was determined as 0.0092 nM.

`COC(=O)N[C@H](C(=O)N1CCC[C@H]1c1ncc(-c2ccc(-c3ccc(-c4cnc(CN5CCC[C@@H](NC(=O)OC)C5=O)[nH]4)cc3)cc2)[nH]1)C(C)C`: under “Hepatitis C virus, 72 h”, the EC50 turned out to be 0.239 nM.

Take `COC(=O)NC(C(=O)N1CCC[C@H]1c1ncc(-c2ccc(-c3ccc4cc(-c5cnc([C@@H]6CCCN6C(=O)[C@@H](NC(=O)OC)C(C)C)[nH]5)ccc4c3)cc2)[nH]1)c1ccsc1` (some centres unmarked): the EC50 (Hepatitis C virus, 72 h) came to 0.0197 nM.

On to `COC(=O)N[C@H](C(=O)N1CCC[C@H]1c1ncc(-c2ccc(-c3ccc(-c4cnc([C@@H]5C[C@@H](COC(F)F)CN5C(=O)[C@@H](NC(=O)OC)C(C)C)[nH]4)cc3)cc2)[nH]1)C(C)C`, for which the EC50 (Hepatitis C virus, 72 h) is 0.0129 nM.

With `COC(=O)N[C@H](C(=O)N1CCC[C@H]1c1ncc(-c2ccc3cc(-c4ccc(-c5cnc([C@@H]6CCCN6C(=O)[C@H](NC(=O)OC)C6CCCCC6)[nH]5)cc4)ccc3c2)[nH]1)C(C)C`, the EC50 (Hepatitis C virus, 72 h) stood at 0.0972 nM.

On to `COC(=O)N[C@H](C(=O)N1CCC[C@H]1c1ncc(-c2ccc(C#Cc3ccc(-c4cnc([C@@H]5CC(F)(F)CN5C(=O)[C@@H](NC(=O)OC)C(C)C)[nH]4)cc3)cc2)[nH]1)C(C)C`, for which the concentration for a half-maximal effect (EC50) (Hepatitis C virus, 72 h) was determined as 0.0091 nM.

As for `COC(=O)N[C@H](C(=O)N1CCC[C@H]1c1nc2ccc(-c3ccc(-c4cnc([C@@H]5[C@H]6CC[C@H](C6)N5C(=O)[C@@H](NC(=O)OC)C(C)C)[nH]4)cc3)cc2[nH]1)C(C)C`, under “Hepatitis C virus, 72 h”, the EC50 worked out at 0.0553 nM.

As for `COC(=O)N[C@H](C(=O)N1CCC[C@H]1C(=O)Nc1ccc(-c2ccc(-c3ccc(-c4cnc([C@@H]5CCCN5C(=O)[C@@H](NC(=O)OC)C(C)C)[nH]4)cc3)cc2)cc1)C(C)C`, the EC50 (Hepatitis C virus, 72 h) stood at 0.0875 nM.

As for `COC(=O)N[C@H](C(=O)N1CC2(CC2)C[C@H]1c1ncc(-c2ccc(-c3ccc4cc(-c5cnc([C@@H]6[C@H]7CC[C@H](C7)N6C(=O)[C@@H](NC(=O)OC)C(C)C)[nH]5)ccc4c3)cc2)[nH]1)C(C)C`, the EC50 (Hepatitis C virus, 72 h) amounted to 0.0076 nM.

Turning to `CN[C@H](C(=O)N1CCC[C@H]1c1nc2ccc(-c3ccc(-c4ccc(-c5ccc6nc([C@@H]7CCCN7C(=O)[C@@H](NC(=O)OC)C(C)C)[nH]c6c5)cc4)cc3)cc2[nH]1)C(C)C`, the EC50 (Hepatitis C virus, 72 h) was found to be 0.0441 nM.

For `COC(=O)N[C@H](C(=O)N1CC2(CC2)C[C@H]1c1ncc(-c2ccc3cc(-c4ccc(-c5cnc([C@@H]6[C@H]7CC[C@H](C7)N6C(=O)[C@@H](NC(=O)OC)C(C)OC)[nH]5)cc4)ccc3c2)[nH]1)C(C)OC` (some centres unmarked), the EC50 (Hepatitis C virus, 72 h) was determined as 0.0201 nM.

Regarding `COC(=O)N[C@@H](CCOC(F)F)C(=O)N1CCC[C@H]1c1ncc(-c2ccc(-c3ccc(-c4cnc([C@@H]5CC6(CN5C(=O)[C@@H](NC(=O)OC)C(C)C)OCCO6)[nH]4)cc3)cc2)[nH]1`, the EC50 (Hepatitis C virus, 72 h) is 0.128 nM.

`COC(=O)N[C@H](C(=O)N1CCC[C@H]1c1ncc(-c2ccc3cc(-c4ccc(-c5cnc([C@@H]6CCCN6C(=O)[C@@H](NC(=O)OC)C(C)C)[nH]5)cc4)ccc3c2)[nH]1)c1ccccc1`: the EC50 (Hepatitis C virus, 72 h) is 0.0305 nM.

As to `COC(=O)N[C@@H](CC#N)C(=O)N1[C@@H]2CC[C@@H](C2)[C@H]1c1nc2ccc(-c3ccc4c(c3)C(F)(F)c3cc(-c5cnc([C@@H]6CC7(CC7)CN6C(=O)[C@@H](NC(=O)OC)C(C)C)[nH]5)ccc3-4)cc2[nH]1`, the EC50 (Hepatitis C virus, 72 h) worked out at 0.004 nM.

Regarding `COC(=O)N[C@H](C(=O)N1CC2(CC2)C[C@H]1c1ncc(-c2ccc3cc(-c4ccc(-c5cnc([C@@H]6CC7(CN6C(=O)[C@@H](NC(=O)OC)C(C)C)OCCO7)[nH]5)cc4)ccc3c2)[nH]1)C(C)C`, the EC50 (Hepatitis C virus, 72 h) was determined as 0.0063 nM.

`COC(=O)N[C@H](C(=O)N1CCC[C@H]1c1ncc(-c2ccc3c(c2)CN(C)Cc2cc(-c4cnc([C@@H]5CCCN5C(=O)[C@@H](NC(=O)OC)C(C)C)[nH]4)ccc2-3)[nH]1)C(C)C`: where the note is “Hepatitis C virus, 72 h”, the EC50 is 11.1 nM.

For `COC(=O)N[C@H](C(=O)N1CCC[C@H]1c1ncc(-c2ccc3cc(-c4ccc(-c5cnc([C@@H]6CC(=O)CN6C(=O)[C@@H](NC(=O)OC)C(C)C)[nH]5)cc4)ccc3c2)[nH]1)C(C)C`, the EC50 (Hepatitis C virus, 72 h) turned out to be 0.0103 nM.

In the case of `COC(=O)N[C@H](C(=O)N1CCC[C@H]1c1ncc(-c2ccc(-c3ccc4c(c3)C(F)(F)c3cc(-c5cnc([C@@H]6CC7(CC7)CN6C(=O)[C@@H](NC(=O)OC)C(C)C)[nH]5)ccc3-4)cc2)[nH]1)C(C)C`, where the note is “Hepatitis C virus, 72 h”, the EC50 was 0.0208 nM.

As for `COC(=O)N[C@H](C(=O)N1CCC[C@H]1c1ncc(-c2ccc(C#Cc3ccc(-c4cnc([C@@H]5CN(C(C)=O)CN5C(=O)[C@@H](NC(=O)OC)C(C)C)[nH]4)cc3)cc2)[nH]1)C(C)C`, the EC50 (Hepatitis C virus, 72 h) came to 0.0403 nM.

Turning to `COC(=O)N[C@H](C(=O)N1CCC[C@H]1c1ncc(-c2ccc(-c3ccc4cc(-c5cnc([C@@H]6CCCN6C(=O)[C@@H](NC(=O)OC)C6CCOCC6)[nH]5)ccc4c3)cc2)[nH]1)C(C)C`, for the setting “Hepatitis C virus, 72 h”, the EC50 was found to be 0.0193 nM.

On to `COC(=O)N[C@@H](CCOC(F)F)C(=O)N1CCC[C@H]1c1ncc(-c2ccc(-c3ccc4cc(-c5cnc([C@@H]6CC7(CC7)CN6C(=O)[C@@H](NC(=O)OC)C(C)C)[nH]5)ccc4c3)cc2)[nH]1`, for which the EC50 (Hepatitis C virus, 72 h) came to 0.0052 nM.

For `COC(=O)N[C@H](C(=O)N1CCC[C@H]1c1ncc(C#Cc2ccc(-c3cnc([C@@H]4CCCN4C(=O)[C@@H](NC(=O)OC)C(C)C)[nH]3)cc2)[nH]1)C(C)C`, where the note is “Hepatitis C virus, 72 h”, the EC50 amounted to 0.139 nM.

On to `COC(=O)N[C@H](C(=O)N1CCC[C@H]1c1ncc(-c2ccc(-c3ccc(-c4ccc(-c5cnc([C@@H]6CCCN6C(=O)[C@@H](NC(=O)OC)C(C)C)[nH]5)cc4)s3)cc2)[nH]1)C(C)C`, for which, under “Hepatitis C virus, 72 h”, the EC50 is 0.0989 nM.

With `COC(=O)N[C@H](C(=O)N1CCC[C@H]1c1ncc(-c2ccc(-c3ccc(-c4cnc([C@@H]5CSC(c6ccncc6)N5C(=O)OCc5ccccc5)[nH]4)cc3)cc2)[nH]1)C(C)C` (single isomer, unassigned) [drawing 1302], the EC50 was determined as 0.0209 nM.

`COC(=O)N[C@H](C(=O)N1CCC[C@H]1c1ncc(-c2ccc3cc(-c4ccc(-c5cnc([C@@H]6CCCN6C(=O)[C@@H](Cc6cn(C)c7ccccc67)NC(=O)OC)[nH]5)cc4)ccc3c2)[nH]1)C(C)C`: the EC50 (Hepatitis C virus, 72 h) worked out at 6.18 nM.

`COC(=O)N[C@H](C(=O)N1CCC[C@H]1c1nc2ccc(-c3ccc(-c4ccc5nc([C@@H]6CCCN6C(=O)[C@@H](NC(=O)OC)C(C)C)[nH]c5c4)s3)cc2[nH]1)C(C)C`: the EC50 (Hepatitis C virus, 72 h) was found to be 0.0103 nM.

With `COC(=O)N[C@@H](C)C(=O)N1[C@@H]2CC[C@@H](C2)[C@H]1c1ncc(-c2ccc3cc(-c4ccc5cc(-c6cnc([C@@H]7CCCN7C(=O)[C@@H](NC(=O)OC)C(C)C)[nH]6)ccc5c4)ccc3c2)[nH]1`, for the setting “Hepatitis C virus, 72 h”, the EC50 came to 1.17 nM.

For the molecule `COC(=O)N[C@H](C(=O)N1CCC[C@H]1c1ncc(-c2ccc(-c3ccc4cc(-c5cnc([C@@H]6CCCN6C(=O)[C@@H](NC(=O)OC)C(C)C)[nH]5)ccc4c3)cc2)[nH]1)c1ccccc1`, the EC50 (Hepatitis C virus, 72 h) turned out to be 0.0272 nM.

Consider `COC(=O)N[C@H](C(=O)N1CCC[C@H]1c1ncc(-c2ccc(-c3ccc(-c4cnc([C@@H]5CN(C(=O)OC)CN5C(=O)[C@@H](NC(=O)OC)C(C)C)[nH]4)cc3)cc2)[nH]1)C(C)C`, for which the EC50 (Hepatitis C virus, 72 h) stood at 0.03 nM.

Turning to `COC(=O)NC(C(=O)N1CCC[C@H]1c1ncc(-c2cc3sc(-c4ccc(-c5cnc([C@@H]6CCCN6C(=O)[C@H](NC(=O)OC)c6ccccc6)[nH]5)cc4)cc3s2)[nH]1)C(C)C` (some centres unmarked), under “Hepatitis C virus, 72 h”, the EC50 was determined as 0.0059 nM.

Turning to `COC(=O)N[C@H](C(=O)N1CCC[C@H]1c1ncc(-c2ccc(-c3ccc(-c4cnc([C@@H]5CN(S(=O)(=O)c6ccccc6)CN5C(=O)[C@@H](NC(=O)OC)C(C)C)[nH]4)cc3)cc2)[nH]1)C(C)C`, the EC50 (Hepatitis C virus, 72 h) was determined as 0.0788 nM.

As to `COC(=O)N[C@H](C(=O)N1CCC[C@H]1C(=O)Nc1nccc2cc(-c3ccc(-c4cnc([C@@H]5CCCN5C(=O)[C@@H](NC(=O)OC)C(C)C)[nH]4)cc3)ccc12)C(C)C`, the EC50 (Hepatitis C virus, 72 h) was 0.729 nM.
